# Experimental data taken from patent US20060040992A1, “Antiinflammatory 3-arylthio-3-thiazolyl-alkylamines” (AstraZeneca AB, priority 2002, published 2006).
# pIC50: −log10 of the molar value.
# Target: T1, nitric oxide synthase (Mus musculus, UniProt P29477)
# T1 construct: The reaction is started by adding 50 μl of cell lysate (prepared as above); endogenous in cells; host or cells: J774A-1 murine macrophage cell line, induced with LPS and IFN-gamma; crude cell lysate
# Experiment: Screen 1: nitric oxide synthase inhibition, 3H-L-arginine to 3H-L-citrulline conversion, lysate of induced J774A-1 cells
# Assay type: biochemical
# Details: enzyme from IFNg/LPS-induced murine macrophage J774A-1 cell lysate; 1 hour at room temperature; read-out: IC50 (concentration of drug substance which gives 50% enzyme inhibition in the assay)
# Protocol: The activity of compounds of formula (I), or a pharmaceutically acceptable salt thereof, may be screened for nitric oxide synthase inhibiting activity by a procedure based on that of Förstermann et al., Eur. J. Pharm., 1992, 225, 161-165. Nitric oxide synthase converts ^3H-L-arginine into ^3H-L-citrulline which can be separated by cation exchange chromatography and quantified by liquid scintillation counting.
# Enzyme is prepared, after induction, from the cultured murine macrophage cell line J774A-1 (obtained from the laboratories of the Imperial Cancer Research Fund). J774A-1 cells are cultured in Dulbeccos Modified Eagles Medium (DMM) supplemented with 10% foetal bovine serum, 4 mM L-glutamine and antibiotics (100 units/ml penicillin G, […] & […] amphotericin B). Cells are routinely grown in […] flasks is containing 35 ml medium kept at 37° C. and in a humidified atmosphere containing 5% CO2. […]
# Labelled L-citrulline is separated from labelled L-arginine using Dowex AG-50W. […] After allowing the samples to dry the L-citruulline is quantified by scintillation counting.
# In a typical experiment basal activity is 300 dpm per 75 μl sample which is increased to 1900 dpm in the reagent controls. […] Compounds are tested at a range of concentrations and from the inhibitions obtained IC50 values are calculated. […]
smiles,measurement,value
N=C(N)NN [arninoguanidine],pIC50,5.00
